Test results reported in article PMC5901961 (Nature, 2017).

Key:
Test in all cases: inside-out patch clamp, HEK293, macroscopic current at +[…] mV, Hill fit
Assay type in all cases: cell-based
mouse TRPM4 [1] = target: mouse TRPM4 (Mus musculus, UniProt Q7TN37, Y228A)
mouse TRPM4 [2] = target: mouse TRPM4 (Mus musculus, UniProt Q7TN37)
mouse TRPM4 [3] = target: mouse TRPM4 (Mus musculus, UniProt Q7TN37, H160A)
mouse TRPM4 [4] = target: mouse TRPM4 (Mus musculus, UniProt Q7TN37, W214A)
Chain of mouse TRPM4 (Mus musculus, UniProt Q7TN37, W214A) (Q7TN37 whole entry W214A): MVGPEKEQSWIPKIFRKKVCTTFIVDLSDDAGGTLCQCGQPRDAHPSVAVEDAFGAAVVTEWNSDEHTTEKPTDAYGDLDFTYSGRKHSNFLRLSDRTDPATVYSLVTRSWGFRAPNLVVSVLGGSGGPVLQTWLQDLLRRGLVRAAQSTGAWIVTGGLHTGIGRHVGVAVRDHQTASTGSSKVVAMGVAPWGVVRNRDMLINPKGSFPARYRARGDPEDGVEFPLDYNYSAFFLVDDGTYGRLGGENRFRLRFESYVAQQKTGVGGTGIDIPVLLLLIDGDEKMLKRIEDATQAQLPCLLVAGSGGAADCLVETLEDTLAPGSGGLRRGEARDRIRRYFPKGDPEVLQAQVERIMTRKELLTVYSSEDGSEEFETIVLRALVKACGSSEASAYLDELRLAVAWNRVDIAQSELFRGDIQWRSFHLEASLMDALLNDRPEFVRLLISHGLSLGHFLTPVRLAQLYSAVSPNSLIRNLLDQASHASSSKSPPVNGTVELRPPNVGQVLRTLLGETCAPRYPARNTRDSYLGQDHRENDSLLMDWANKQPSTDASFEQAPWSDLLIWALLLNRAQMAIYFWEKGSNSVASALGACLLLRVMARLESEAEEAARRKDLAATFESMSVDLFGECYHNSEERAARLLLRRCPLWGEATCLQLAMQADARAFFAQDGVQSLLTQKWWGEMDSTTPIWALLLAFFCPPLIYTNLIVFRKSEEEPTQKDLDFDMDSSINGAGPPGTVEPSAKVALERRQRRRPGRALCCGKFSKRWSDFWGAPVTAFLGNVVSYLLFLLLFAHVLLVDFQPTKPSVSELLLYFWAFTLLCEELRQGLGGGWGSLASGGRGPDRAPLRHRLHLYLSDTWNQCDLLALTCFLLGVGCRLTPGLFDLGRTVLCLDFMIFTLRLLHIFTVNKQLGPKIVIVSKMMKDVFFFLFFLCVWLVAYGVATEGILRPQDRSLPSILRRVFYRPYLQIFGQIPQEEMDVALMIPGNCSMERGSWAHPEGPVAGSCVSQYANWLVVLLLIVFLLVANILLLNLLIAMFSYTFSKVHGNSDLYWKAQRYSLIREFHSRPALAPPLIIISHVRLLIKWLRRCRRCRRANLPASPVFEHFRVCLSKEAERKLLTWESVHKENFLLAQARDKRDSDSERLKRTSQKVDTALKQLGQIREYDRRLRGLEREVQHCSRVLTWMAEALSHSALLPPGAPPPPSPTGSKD

Chain of mouse TRPM4 (Mus musculus, UniProt Q7TN37) (Q7TN37 whole entry): as the sequence (Q7TN37 whole entry W214A) above, with A214W counted along it
Chain of mouse TRPM4 (Mus musculus, UniProt Q7TN37, Y228A) (Q7TN37 whole entry Y228A): as the sequence (Q7TN37 whole entry W214A) above, with A214W, Y228A counted along it
Chain of mouse TRPM4 (Mus musculus, UniProt Q7TN37, H160A) (Q7TN37 whole entry H160A): as the sequence (Q7TN37 whole entry W214A) above, with H160A, A214W counted along it

IC50 (mouse TRPM4 [1]): 14.2 ± 0.7 µM
IC50 (mouse TRPM4 [2]): 2.3 ± 0.5 µM
IC50 (mouse TRPM4 [3]): > 160 µM
IC50 (mouse TRPM4 [4]): 6.5 ± 0.8 µM
Compound: Nc1ncnc2c1ncn2[C@@H]1O[C@H](COP(=O)(O)OP(=O)(O)OP(=O)(O)O)[C@@H](O)[C@H]1O [ATP]
